# Assay results as given in patent US11801232B2, “Targeting of ARID1A-deficient cancers by inhibiting de novo pyrimidine synthesis pathway” (YALE UNIVERSITY, priority 2019, dated 2023).
# Where two headings read alike, the source gives them in different places.
# Experiments:
# Test in all cases: Cytotoxicity (SRB) assay with CalcuSyn combination analysis
# Assay type in all cases: cell-based
# ES2 shARID1A (a) cells = settings: Homo sapiens, read-out: Dm
# Protocol: (§1) Short Hairpin RNA (shRNA)-Mediated Knockdown and Expression of ARID1A in ovarian and endometrial carcinoma cells. shRNA lentiviral supernatants were produced using standard protocols, as previously described^8. Vectors were transfected into HEK293FT cells using X-tremeGENE 9 DNA Transfection Reagent (from Roche). Retroviral supernatants isolated at 48 h were diluted 1:1 in culture medium and used to infect ARID1A-wildtype ES2 and KLE cell lines. Stably transfected subclones were expanded using puromycin (from Dot Scientific) drug selection. For expression of ARID1A in the ARID1A-mutant HEC-1-A cell line, pCIN4-HA-ARID1A was transfected using X-tremeGENE 9 DNA Transfection Reagent (from Roche), followed by selection with G418 (from Gibco). For expression of ARID1A in the ARID1A-mutant SKOV3 and OVISE cell lines, V5/His-tagged pLenti-puro-LacZ and pLenti-puro-ARID1A were transfected using lentivirus. Lentivirus was produced using HEK293FT cells with the second-generation packaging system pSPAX2 (Addgene plasmid) and pMD2.G (Addgene plasmid). Stably transfected subclones were expanded using puromycin and blasticidin (Gibco) drug selection.
# (§2) Cytotoxicity assay. Cells were seeded in 96-well plates, with 2000 cells in 100 μL/well, and cultured for 24 h. The cells were treated with serial dilutions of drugs or without drug for an additional 72 h. Cell number was determined using a sulforhodamine B (SRB) assay, as previously described^23. Briefly, cells were fixed with 20% trichloroacetic acid (TCA), air-dried, and stained with 0.4% SRB dissolved in 1% acetic acid. After washing, protein-bound dye was solubilized with 10 mM unbuffered Tris-base solution (pH 10.5) and detected at 510 nm using a microplate reader. Percentage of cell-growth was calculated using the following formula: % cell growth=[(Absorbance sample)/(Absorbance untreated)]×100
# (§3) Using CalcuSyn software (Biosoft), dose-effect curves were generated, and drug concentrations corresponding to a 50% decrease in cell number (IC50) were determined.
# (§4) Drug concentrations corresponding to a median effect (Dm) are shown for each treatment; teriflunomide concentration is shown for combination (Combo) treatment at a 10:1 fixed molar ratio of two drugs, teriflunomide and AZD6738. […] Datasets from at least three independent experiments were combined, and each table cell contains the mean value±SD. SCR, ES2-shScrambled. N/A, not applicable. Statistical analysis was carried out by one-way ANOVA with Bonferroni's post-hoc test, and differences were considered significant at **P<0.01 and ***P<0.001 as compared to the ES2 parental group with the same drug treatment.
# (§5) Drug concentrations (in μM for teriflunomide, in nM for […]) corresponding to median effect (Dm) are shown for each treatment; teriflunomide concentration is shown for combination (Combo) treatment at a 200:1 fixed molar ratio of the two drugs, teriflunomide and VX-970. […] CIwt<0.8, =0.8 to 1.2, and >1.2 indicates synergism, an additive effect, and antagonism, respectively. CIwt value was calculated using the formula: CIwt=(ED50+2ED75+3ED90)/6. Datasets from at least three independent experiments were combined, and each table cell contains the mean value±SD. Teri, teriflunomide. SCR, ES2-shScrambled. N/A, not applicable. Statistical analysis was carried out by one-way ANOVA with Bonferroni's post-hoc test, and differences were considered significant at ***P<0.001 as compared to the ES2 parental group with the same drug treatment.
# ES2 shARID1A (b) cells = settings: Homo sapiens, read-out: Dm
# Protocol: as §1, §2, §3, §4, §5
# [1] = test system: ES2-shScrambled (SCR) cells; settings: Homo sapiens, read-out: Dm
# Protocol: as §1, §2, §3, §4, §5
# [2] = test system: ARID1A-restoration OVISE cells (ARID1A Dox); settings: Homo sapiens, Table 3, single drug, read-out: Dm
# Protocol: as §1, §2, §3
# (§6) CIwt<0.8, =0.8 to 1.2, and >1.2 indicates synergism, an additive effect, and antagonism, respectively. A CIwt value was assigned as follows: (ED50+2ED75+3ED90)/6. Datasets from at least three independent experiments were combined, and means±SD were calculated for each combination. Teri, teriflunomide. N/A, not applicable. Statistical analysis was carried out by one-way ANOVA with Bonferroni's post-hoc test, and differences were considered significant at ***P<0.001 as compared to the ARID1A restoration group induced by doxycycline with the same drug treatment.
# [3] = test system: OVISE cells, ARID1A (not induced); settings: Homo sapiens, Table 3, single drug, read-out: Dm
# Protocol: as §1, §2, §3, §6
# OVISE cells, LacZ Dox = settings: Homo sapiens, Table 3, single drug, read-out: Dm
# Protocol: as §1, §2, §3, §6
# OVISE cells, LacZ = settings: Homo sapiens, Table 3, single drug, read-out: Dm
# Protocol: as §1, §2, §3, §6
# HEC-1A cells = settings: Homo sapiens, Table 6, single drug, median effect, read-out: Dm
# Protocol: as §2, §3
# (§7) The drug concentrations corresponding to a median effect (Dm) are shown for each treatment; teriflunomide concentration is shown for combination (Combo) treatment at a 10:1 fixed molar ratio of two drugs, teriflunomide and AZD6738. […] CIwt<0.8, =0.8 to 1.2, and >1.2 indicates synergism, an additive effect, and antagonism, respectively. A CIwt value was calculated using the formula: CIwt=(ED50+2ED75+3ED90)/6. Datasets from at least three independent experiments were combined, and each table cell contains the mean value±SD.
# JHOC-5 cells = settings: Homo sapiens, Table 5, single drug, median effect, read-out: Dm
# Protocol: as §2, §3, §7
# [4] = Table 1, single drug, median effect
SMILES,IC50 (ES2 shARID1A (a) cells; [4]),IC50 (ES2 shARID1A (b) cells; [4]),"IC50 [1, 4]",IC50 [2],IC50 [3],"IC50 (OVISE cells, LacZ Dox)","IC50 (OVISE cells, LacZ)",IC50 (HEC-1A cells),IC50 (JHOC-5 cells),"IC50 (ES2 shARID1A (a) cells; Table 2, teriflunomide alone)","IC50 (ES2 shARID1A (b) cells; Table 2, teriflunomide alone)","IC50 ([1]; Table 2, teriflunomide alone)"
C[C@@H]1COCCN1c1cc(C2([S@](C)(=N)=O)CC2)nc(-c2cc[nH]c3nccc2-3)n1 [AZD6738],0.2 ± 0.01 µM,0.24 ± 0.03 µM,1.18 ± 0.17 µM,6.99 ± 0.34 µM,0.77 ± 0.16 µM,0.67 ± 0.11 µM,0.7 ± 0.03 µM,4.47 ± 0.45 µM,2.91 ± 0.76 µM,,,
"C/C(O)=C(\C#N)C(=O)Nc1ccc(C(F)(F)F)cc1 [Teriflunomide, teriflunomide]",17.9 ± 1.32 µM,16.8 ± 0.92 µM,28.2 ± 1.59 µM,109 ± 3.18 µM,19.1 ± 1.07 µM,19.3 ± 1.24 µM,18.2 ± 1.19 µM,50.5 ± 4.99 µM,25.2 ± 1.85 µM,15.6 ± 1.79 µM,15.5 ± 3.11 µM,26.7 ± 1.26 µM
